# Data as given in patent publication US7928108B2, “Pyridinone derivative for the treatment of premature ejaculation” (Glaxo Group Limited, priority 2007, dated 2011).
# Columns and labels:
# Human 5-HT1B receptor = target: T1, Human 5-HT1B receptor (Homo sapiens, UniProt P28222); assay: Human 5-HT1B receptor affinity, [3H]-5-HT radioligand binding; conditions: CHO cell membranes expressing 5-HT1B, [3H]-5-HT 3 nM, 37° C. 45 minutes; assay b); read-out: pKi against 5-HT1B (converted)
# T1 construct: expressed in transfected cells; host or cells: CHO
# T1 sequence (P28222 whole entry): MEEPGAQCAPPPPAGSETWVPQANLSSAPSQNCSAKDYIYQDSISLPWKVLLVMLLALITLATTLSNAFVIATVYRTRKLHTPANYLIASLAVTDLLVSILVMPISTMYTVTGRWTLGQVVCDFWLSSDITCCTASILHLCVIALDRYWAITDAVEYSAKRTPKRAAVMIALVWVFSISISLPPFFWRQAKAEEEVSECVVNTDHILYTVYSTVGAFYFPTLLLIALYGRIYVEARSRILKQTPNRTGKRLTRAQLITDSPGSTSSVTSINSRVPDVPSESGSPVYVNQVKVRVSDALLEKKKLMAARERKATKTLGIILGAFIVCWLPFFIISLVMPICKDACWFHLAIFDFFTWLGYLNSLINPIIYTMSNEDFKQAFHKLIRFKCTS
# Protocol: (§1) b) Human 5-HT1A, 5-HT1B and 5-HT1D Receptor Affinity
# (§2) The affinities of the compounds of the invention for the 5-HT1A, 5-HT1B and 5-HT1D receptors may be determined by the following assay.
# (§3) Homogenise chinese hamster ovary (CHO) cells expressing 5-HT1A receptors (4×10^7 cells/ml) in Tris buffer and store in 1 ml aliquots. Homogenise CHO cells expressing 5-HT1B receptors (4×10^7 cells/ml) in Tris buffer and store in 1.5 ml aliquots. Homogenise CHO cells expressing 5-HT1D receptors (1×10^8/ml) in Tris buffer and stored in 1 ml aliquots. The binding assays are carried out in a total volume of 500 μl. For each compound to be tested make up seven solutions ranging in concentration from 0.3 mM to 0.3 nM (100× final concentrations). Dispense 5 μl of solution containing the test compound per well and add 100 μl of radioligand at 5× final desired assay concentration, i.e. [^3H]-5-HT 15 nM (final assay concentration: 3 nM) in Tris Mg HCl buffer (pH 7.7) for 5-HT1B/1D receptors and [^3H]WAY100635 2.5 nM (final assay concentration: 0.5 nM) in Tris Mg HCl buffer (pH 7.7) containing 150 μM GPP(NH)p (final assay concentration: 30 μM) for 5-HT1A receptors. Add 400 μl/well of a cell membrane suspension in Tris Mg HCl buffer (pH 7.7) to make a total volume of 505 μl. Incubate at 37° C. for 45 minutes. […] Measure radioactivity using Topcount scintillation counting. […]
# Human 5-HT1A receptor [1] = target: T2, Human 5-HT1A receptor (Homo sapiens, UniProt P08908); assay: Human 5-HT1A receptor functional potency, GTPγS binding protocol; assay type: biochemical; design: expressed in transfected cells; conditions: GTPγS binding, membranes of HEK293 cells transfected with human 5-HT1A; assay a); read-out: fpKi against 5-HT1A (converted)
# T2 sequence (P08908 1-422): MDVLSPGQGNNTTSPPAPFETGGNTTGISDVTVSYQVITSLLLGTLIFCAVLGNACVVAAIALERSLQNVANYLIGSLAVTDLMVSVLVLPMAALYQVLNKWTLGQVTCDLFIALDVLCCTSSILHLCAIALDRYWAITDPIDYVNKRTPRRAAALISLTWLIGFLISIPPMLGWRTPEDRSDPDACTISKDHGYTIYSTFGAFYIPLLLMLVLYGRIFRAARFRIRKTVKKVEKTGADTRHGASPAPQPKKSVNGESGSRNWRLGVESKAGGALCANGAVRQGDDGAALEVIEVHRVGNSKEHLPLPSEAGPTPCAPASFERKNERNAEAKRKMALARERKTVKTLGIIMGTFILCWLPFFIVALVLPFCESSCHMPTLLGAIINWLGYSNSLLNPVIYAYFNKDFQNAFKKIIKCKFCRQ
# Protocol: a) Human 5-HT1A Receptor Functional Potency
# The functional potency of the compounds of the invention for the 5-HT1A receptor may be determined by the following GTPγS binding protocol. Cells used in the study are CHO Cells and Human Embryo Kidney (HEK293). Transfect cells with DNA coding for human receptor as follows: HEK293—5-HT1A. Initially dissolve test compounds in 100% dimethyl sulfoxide to a concentration of 10 mM. Serially dilute the test compounds in 100% dimethyl sulphoxide using a Biomek FX in 384 well assay plates, so that the final top concentration of test compound is 3 μM in the assay. Add the test compound at 1.0% total assay volume (TAV) to a solid, white, 384 well assay plate (Griener). Add 50% TAV of precoupled (for 60 mins @ RT) membranes (6 ug/well), Wheatgerm Agglutinin Polystyrene Scintillation Proximity Assay beads (RPNQ0260 Amersham International) (0.25 mg/well) in 20 mM HEPES pH 7.4, 100 mM NaCl, 3 mM MgCl2 and 10 μM GDP and saponin 60 m/well FAC was also added. The third addition may be either a 20% TAV addition of either; buffer for agonist format, or EC80 final assay concentration (FAC) of agonist, prepared in assay buffer, 5HT, for antagonist format.
# Start the assay by the addition of 29% TAV of GTPγS 0.38 nM FAC.
# After all additions, incubate the assay plates at RT for 2-3 hours. […] Read the assay plates between 3-6 hours after the final addition.
# Human 5-HT1A receptor [2] = target: T2, Human 5-HT1A receptor; assay: Human 5-HT1A receptor affinity, [3H]WAY100635 radioligand binding; design: expressed in transfected cells; host or cells: CHO; conditions: CHO cell membranes expressing 5-HT1A, [3H]WAY100635 0.5 nM, 37° C. 45 minutes; assay b); read-out: pKi against 5-HT1A (converted)
# Protocol: as §1, §2, §3
structure (smiles),measurement,setting,value
"COc1cccn(CCCCN2CCN(c3cccc4nc(C)ccc34)CC2)c1=O [compound of formula (I), 3-(methyloxy)-1-{4-[4-(2-methyl-5-quinolinyl)-1-piperazinyl]butyl}-2(1H)-pyridinone]",Ki,Human 5-HT1B receptor,200 nM
same,Ki,Human 5-HT1A receptor [1],0.501 nM
same,Ki,Human 5-HT1A receptor [2],0.501 nM
